In ChEMBL document CHEMBL1127437, “Novel benzisoxazole derivatives as potent and selective inhibitors of acetylcholinesterase” (J Med Chem, 1994):

Key:
Acetylcholinesterase = Acetylcholinesterase (Homo sapiens, UniProt P22303)
Description: Evaluated for the in vitro inhibition of the Acetylcholinesterase (AChE) from human erythrocytes

Mus musculus [1] = assay: In vivo activity was determined by measuring […] in mouse forebrain.; format: functional
Mus musculus [2] = species: Mus musculus; assay: animal or person
Description: Tested for effective dose for elevation of Acetylcholinesterase (AChE) in mouse forebrain

Butyrylcholinesterase = Butyrylcholinesterase (Equus caballus, UniProt Q9N1N9)
Description: Compound was evaluated for the in vitro inhibition of the Butyrylcholinesterase from horse serum

Mus musculus [3] = assay: Tested for effective dose for […] by peroral administration in vivo in mouse; format: functional; conditions: po

Sequence of Acetylcholinesterase (P22303 whole entry): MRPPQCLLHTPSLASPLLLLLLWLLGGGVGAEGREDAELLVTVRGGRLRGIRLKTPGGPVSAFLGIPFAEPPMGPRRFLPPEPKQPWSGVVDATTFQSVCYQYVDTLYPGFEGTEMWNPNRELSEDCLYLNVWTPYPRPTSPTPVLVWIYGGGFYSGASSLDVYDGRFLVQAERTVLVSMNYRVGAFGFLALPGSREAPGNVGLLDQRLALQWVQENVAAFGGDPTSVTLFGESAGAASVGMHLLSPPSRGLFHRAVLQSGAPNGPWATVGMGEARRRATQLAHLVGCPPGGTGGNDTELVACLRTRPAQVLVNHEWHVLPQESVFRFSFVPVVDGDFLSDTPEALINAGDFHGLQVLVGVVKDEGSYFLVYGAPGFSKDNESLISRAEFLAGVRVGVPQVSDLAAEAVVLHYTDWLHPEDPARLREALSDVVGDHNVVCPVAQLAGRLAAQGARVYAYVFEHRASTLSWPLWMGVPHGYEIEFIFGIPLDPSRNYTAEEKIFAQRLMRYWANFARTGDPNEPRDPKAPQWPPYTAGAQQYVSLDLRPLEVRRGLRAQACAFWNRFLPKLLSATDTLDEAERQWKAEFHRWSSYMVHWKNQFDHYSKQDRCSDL
Sequence of Butyrylcholinesterase (Q9N1N9 whole entry): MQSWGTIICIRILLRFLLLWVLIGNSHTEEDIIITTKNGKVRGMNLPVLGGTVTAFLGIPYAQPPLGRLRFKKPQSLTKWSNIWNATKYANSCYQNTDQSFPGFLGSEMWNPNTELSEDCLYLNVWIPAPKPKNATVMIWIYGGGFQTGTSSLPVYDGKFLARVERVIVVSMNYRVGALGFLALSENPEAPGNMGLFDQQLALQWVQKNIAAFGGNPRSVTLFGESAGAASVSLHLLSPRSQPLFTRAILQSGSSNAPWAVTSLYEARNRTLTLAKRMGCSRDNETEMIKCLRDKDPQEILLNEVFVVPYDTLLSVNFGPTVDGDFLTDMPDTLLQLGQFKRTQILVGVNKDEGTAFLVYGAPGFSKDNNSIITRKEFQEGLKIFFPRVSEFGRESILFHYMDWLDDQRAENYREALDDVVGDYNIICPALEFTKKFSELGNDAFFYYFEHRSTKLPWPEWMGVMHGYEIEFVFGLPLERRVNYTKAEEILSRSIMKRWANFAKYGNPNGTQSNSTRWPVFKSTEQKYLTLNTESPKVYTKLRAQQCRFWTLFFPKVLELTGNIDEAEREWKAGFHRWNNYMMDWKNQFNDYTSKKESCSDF

Brc1ccc2c(CCC3CCN(Cc4ccccc4)CC3)noc2c1
IC50 (Acetylcholinesterase): 50 nM

O=C(Nc1ccc2c(CCC3CCN(Cc4ccccc4)CC3)noc2c1)c1ccccc1
ED50 (Mus musculus [1]): > 100 mg/kg

COc1cc2c(cc1OC)C(=O)C(CC1CCN(Cc3ccccc3)CC1)C2 (stereo not drawn) [DONEPEZIL]
ED50 (Mus musculus [2]): 14 mg/kg

c1ccc(CN2CCC(CCc3noc4cc(N5CCOCC5)ccc34)CC2)cc1
IC50 (Butyrylcholinesterase): 4700 nM

c1ccc(CN2CCC(CCc3ncnc4ccccc34)CC2)cc1
IC50 (Acetylcholinesterase): 340 nM

O=S(=O)(Nc1ccc2c(CCC3CCN(Cc4ccccc4)CC3)noc2c1)c1ccccc1
IC50 (Acetylcholinesterase): 14 nM

Cc1ccc2onc(CCC3CCN(Cc4ccccc4)CC3)c2c1
IC50 (Acetylcholinesterase): 7.8 nM

CC(=O)Nc1ccc2c(CCC3CCN(Cc4ccccc4)CC3)noc2c1
IC50 (Butyrylcholinesterase): 9000 nM
ED50 (Mus musculus [3]): 2.4 mg/kg
IC50 (Acetylcholinesterase): 2.8 nM

N#Cc1ccc2c(CCC3CCN(Cc4ccccc4)CC3)noc2c1
IC50 (Acetylcholinesterase): 101 nM

CNC(=O)Oc1ccc2c(c1)[C@]1(C)CCN(C)[C@@H]1N2C [PHYSOSTIGMINE]
IC50 (Butyrylcholinesterase): 73 nM

Cc1cc2onc(CCC3CCN(Cc4ccccc4)CC3)c2cc1C
IC50 (Acetylcholinesterase): 5.8 nM
